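Interpolation was linear, between the two tested concentrations surrounding the appropriate level; five concentrations were tested over 48 hours in 96-well plates. Definition used: TGI = concentration required for complete inhibition of growth.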
Assays:
Assay in all cases: growth of human tumour cells (NCI), 48 h
K-562 leukemia = tested on: K-562 leukemia
UO-31 renal = tested on: UO-31 renal
BT-549 breast = tested on: BT-549 breast
MOLT-4 leukemia = tested on: MOLT-4 leukemia
SNB-19 CNS = tested on: SNB-19 CNS
MALME-3M melanoma = tested on: MALME-3M melanoma
SF-539 CNS = tested on: SF-539 CNS
SW-620 colon = tested on: SW-620 colon
EKVX NSCLC = tested on: EKVX NSCLC
MDA-MB-435 = tested on: MDA-MB-435
CAKI-1 renal = tested on: CAKI-1 renal
NCI-H23 lung = tested on: NCI-H23 lung
MDA-N = tested on: MDA-N
HT29 colon = tested on: HT29 colon
COLO 205 colon = tested on: COLO 205 colon
HOP-92 NSCLC = tested on: HOP-92 NSCLC
HCT-116 colon = tested on: HCT-116 colon
NCI-H226 lung = tested on: NCI-H226 lung
U251 CNS = tested on: U251 CNS
CCRF-CEM leukemia = tested on: CCRF-CEM leukemia
SK-MEL-5 melanoma = tested on: SK-MEL-5 melanoma
LOX IMVI melanoma = tested on: LOX IMVI melanoma
SF-268 CNS = tested on: SF-268 CNS
SF-295 CNS = tested on: SF-295 CNS
ACHN renal = tested on: ACHN renal
RPMI-8226 leukemia = tested on: RPMI-8226 leukemia
HCT-15 colon = tested on: HCT-15 colon
KM12 colon = tested on: KM12 colon
OVCAR-3 ovarian = tested on: OVCAR-3 ovarian
NCI/ADR-RES ovarian = tested on: NCI/ADR-RES ovarian
DU-145 prostate = tested on: DU-145 prostate
OVCAR-5 ovarian = tested on: OVCAR-5 ovarian
HL-60(TB) leukemia = tested on: HL-60(TB) leukemia
HS 578T breast = tested on: HS 578T breast
MDA-MB-231 breast = tested on: MDA-MB-231 breast
T-47D breast = tested on: T-47D breast
OVCAR-4 ovarian = tested on: OVCAR-4 ovarian
PC-3 prostate = tested on: PC-3 prostate
NCI-H522 lung = tested on: NCI-H522 lung
A498 renal = tested on: A498 renal
SN12C renal = tested on: SN12C renal
TK-10 renal = tested on: TK-10 renal
MCF7 breast = tested on: MCF7 breast
M14 melanoma = tested on: M14 melanoma
A549 NSCLC = tested on: A549 NSCLC
SK-OV-3 ovarian = tested on: SK-OV-3 ovarian
HOP-62 NSCLC = tested on: HOP-62 NSCLC
UACC-62 melanoma = tested on: UACC-62 melanoma
IGROV1 ovarian = tested on: IGROV1 ovarian
786-0 renal = tested on: 786-0 renal
SK-MEL-28 melanoma = tested on: SK-MEL-28 melanoma
OVCAR-8 ovarian = tested on: OVCAR-8 ovarian
SK-MEL-2 melanoma = tested on: SK-MEL-2 melanoma
SR leukemia = tested on: SR leukemia

Measured: TGI

COc1ccc2c3c1O[C@H]1C(=O)C=CC4(n5[nH]c(=O)n(-c6ccccc6)c5=O)C(C2)N(C)CCC314 (some centres undefined)
> 100 µM: all assays above

— PubChem BioAssay (NCI)
